Measured values: patent publication US6337401B1, “Fluoromethoxyacrylic acid derivatives and their use as pest control agents” (Bayer Aktiengesellschaft, priority 1995, dated 2002)

Key:
Assay type in all cases: in vivo
[1] = system: Erysiphe graminis f.sp. hordei; assay: Erysiphe test (barley)/protective; conditions: protective spray, application rate 250 g/ha, evaluation 7 days after inoculation
Experimental: Erysiphe Test (Barley)/Protective Solvent: 10 parts by weight of N-methyl-pyrrolidone Emulsifier: 0.6 part by weight of alkylaryl polyglycol ether To produce a suitable preparation of active compound, 1 part by weight of active compound is mixed with the stated amounts of solvent and emulsifier, and the concentrate is diluted with water to the desired concentration. To test for protective activity, young plants are sprayed with the preparation of active compound at given application rate. After the spray coating has dried on, the plants are dusted with spores of Erysiphe graminis f.sp. hordei. The plants are placed in a greenhouse at a temperature of about 20° C. and a relative atmospheric humidity of about 80%, in order to promote the development of powdery mildew pustules. Evaluation is carried out 7 days after the inoculation.

Leptosphaeria nodorum = Leptosphaeria nodorum test (wheat)/protective; conditions: protective spray, application rate 250 g/ha, evaluation 10 days after inoculation
Experimental: Leptosphaeria nodorun Test (Wheat)/Protective Solvent: 10 parts by weight of N-methyl-pyrrolidone Emulsifier: 0.6 part by weight of alkylaryl polyglycol ether To produce a suitable preparation of active compound, 1 part by weight of active compound is mixed with the stated amounts of solvent and emulsifier, and the concentrate is diluted with water to the desired concentration. To test for protective activity, young plants are sprayed with the preparation of active compound. After the spray coating has dried on, the plants are sprayed with a spore suspension of Leptosphaeria nodorum. The plants remain for 48 hours in an incubation cabin at 20° C. and 100% relative atmospheric humidity. The plants are placed in a greenhouse at a temperature of about 15° C. and a relative atmospheric humidity of about 80%. Evaluation is effected 10 days after the inoculation.

Uncinula necator = assay: Uncinula test (vine)/protective; conditions: protective spray, evaluation 14 days after inoculation
Experimental: (§1) Uncinula Test (Vine)/Protective Solvent: 4.7 parts by weight of acetone Emulsifier: 0.3 part by weight of alkylaryl polyglycol ether To produce a suitable preparation of active compound, 1 part by weight of active compound is mixed with the stated amounts of solvent and emulsifier, and the concentrate is diluted with water to the desired concentration. To test for protective activity, young plants are sprayed with the preparation of active compound. After the spray coating has dried on, the plants are dusted with conidia of the fungus Uncinula necator. The plants are then placed in a greenhouse at 23 to 24° C. and a relative atmospheric humidity of about 75%. Evaluation is effected 14 days after the inoculation.

Plasmopara viticola = assay: Plasmopara test (vine)/protective; conditions: protective spray, active compound concentration 100 ppm, evaluation 6 days after inoculation
Experimental: Plasmopara Test (Vine)/Protective Solvent: 4.7 parts by weight of acetone Emulsifier: 0.3 part by weight of alkylaryl polyglycol ether To produce a suitable preparation of active compound, 1 part by weight of active compound is mixed with the stated amounts of solvent and emulsifier, and the concentrate is diluted with water to the desired concentration. To test for protective activity, young plants are sprayed with the preparation of active compound. After the spray coating has dried on, the plants are inoculated with an aqueous spore suspension of Plasmopara viticola and then remain in a humidity chamber at 20 to 22° C. and 100% relative atmospheric humidity for 1 day. The plants are then placed in a greenhouse at 21° C. and about 90% atmospheric humidity for 5 days. The plants are then moistened and placed in a humidity chamber for 1 day. Evaluation is carried out 6 days after the inoculation.

Sphaerotheca fuliginea = assay: Sphaerotheca test (cucumber)/protective; conditions: protective spray, active compound concentration 100 ppm, evaluation 10 days after inoculation
Experimental: as §1, with “Sphaerotheca Test (Cucumber)/Protective” for “Uncinula Test (Vine)/Protective”, “Sphaerotheca Test (Cucumber)/Protective Solvent: 4.7” for “Uncinula Test (Vine)/Protective Solvent: 4.7”, “the fungus Sphaerotheca fuliginea. The plants” for “the fungus Uncinula necator. The plants”, “C. and at a relative” for “C. and a relative”, “Evaluation is carried out 10 days after” for “Evaluation is effected 14 days after”

Venturia inaequalis = assay: Venturia test (apple)/protective; conditions: protective spray, active compound concentration 10 ppm, evaluation 12 days after inoculation
Experimental: Venturia Test (Apple)/Protective Solvent: 4.7 parts by weight of acetone Emulsifier: 0.3 part by weight of alkylaryl polyglycol ether To produce a suitable preparation of active compound, 1 part by weight of active compound is mixed with the stated amounts of solvent and emulsifier, and the concentrate is diluted with water to the desired concentration. To test for protective activity, young plants are sprayed with the preparation of active compound. After the spray coating has dried on, the plants are inoculated with an aqueous conidia suspension of the apple scab causative organism Venturia inaequalis and then left in an incubation cabin at 20° C. and 100% relative atmospheric humidity for 1 day. The plants are then placed in a greenhouse at 20° C. and a relative atmospheric humidity of about 70%. Evaluation is carried out 12 days after the inoculation.

COC(=O)/C(=C/OCF)c1ccccc1Oc1nc(-c2ccc(Br)cc2)ns1 [Example 2, methyl 2-{2-[3-(4-bromophenyl)-1,2,4-thiadiazol-5-yloxy]-phenyl}-3-fluoromethoxy-acrylate]
Efficacy in % of the untreated control [1]: 81%
Efficacy in %, relative to the untreated control (Leptosphaeria nodorum): 88%
Efficacy (Uncinula necator; active compound concentration 10 ppm): 100%
Efficacy in % of the untreated control (Uncinula necator; active compound concentration 25 ppm (table)): 100%
Efficacy in % of the untreated control (Plasmopara viticola): 100%
Efficacy in % of the untreated control (Sphaerotheca fuliginea): 100%
Efficacy in % of the untreated control (Venturia inaequalis): 100%
